Assay results taken from PubChem BioAssay (NCI).
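Tested at 5 concentrations; 48 h exposure; 96-well plates; endpoints linearly interpolated, else capped at highest concentration. The concentration for full growth arrest is given as TGI.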

Columns and labels:
Assay in all cases: NCI anticancer screen, dose series, 48 h
SR leukemia = test system: SR leukemia
SK-OV-3 ovarian = test system: SK-OV-3 ovarian
PC-3 prostate = test system: PC-3 prostate
NCI-H522 lung = test system: NCI-H522 lung
U251 CNS = test system: U251 CNS
RXF 393 renal = test system: RXF 393 renal
MDA-MB-231 breast = test system: MDA-MB-231 breast
MALME-3M melanoma = test system: MALME-3M melanoma
SK-MEL-28 melanoma = test system: SK-MEL-28 melanoma
LOX IMVI melanoma = test system: LOX IMVI melanoma
SF-539 CNS = test system: SF-539 CNS
NCI-H226 lung = test system: NCI-H226 lung
M14 melanoma = test system: M14 melanoma
HOP-92 NSCLC = test system: HOP-92 NSCLC
BT-549 breast = test system: BT-549 breast
UACC-257 melanoma = test system: UACC-257 melanoma
HCT-15 colon = test system: HCT-15 colon
COLO 205 colon = test system: COLO 205 colon
OVCAR-8 ovarian = test system: OVCAR-8 ovarian
SF-268 CNS = test system: SF-268 CNS
A549 NSCLC = test system: A549 NSCLC
SNB-75 CNS = test system: SNB-75 CNS
RPMI-8226 leukemia = test system: RPMI-8226 leukemia
MOLT-4 leukemia = test system: MOLT-4 leukemia
KM12 colon = test system: KM12 colon
IGROV1 ovarian = test system: IGROV1 ovarian
NCI-H23 lung = test system: NCI-H23 lung
OVCAR-3 ovarian = test system: OVCAR-3 ovarian
TK-10 renal = test system: TK-10 renal
ACHN renal = test system: ACHN renal
K-562 leukemia = test system: K-562 leukemia
HL-60(TB) leukemia = test system: HL-60(TB) leukemia
HOP-62 NSCLC = test system: HOP-62 NSCLC
DU-145 prostate = test system: DU-145 prostate
SK-MEL-5 melanoma = test system: SK-MEL-5 melanoma
UACC-62 melanoma = test system: UACC-62 melanoma
MDA-MB-435 = test system: MDA-MB-435
HS 578T breast = test system: HS 578T breast
UO-31 renal = test system: UO-31 renal
OVCAR-4 ovarian = test system: OVCAR-4 ovarian
CCRF-CEM leukemia = test system: CCRF-CEM leukemia
HCT-116 colon = test system: HCT-116 colon
A498 renal = test system: A498 renal
CAKI-1 renal = test system: CAKI-1 renal
SK-MEL-2 melanoma = test system: SK-MEL-2 melanoma
786-0 renal = test system: 786-0 renal
SN12C renal = test system: SN12C renal
MCF7 breast = test system: MCF7 breast
OVCAR-5 ovarian = test system: OVCAR-5 ovarian
SNB-19 CNS = test system: SNB-19 CNS
HT29 colon = test system: HT29 colon
SW-620 colon = test system: SW-620 colon
T-47D breast = test system: T-47D breast
NCI-H460 lung = test system: NCI-H460 lung
SF-295 CNS = test system: SF-295 CNS
NCI/ADR-RES ovarian = test system: NCI/ADR-RES ovarian
EKVX NSCLC = test system: EKVX NSCLC

In the case of O=C1CCSC(=S)N1c1ccc(Br)c(Cl)c1, the TGI (SR leukemia) was > 100 µM, the TGI (SK-OV-3 ovarian) was 91.5 µM and the TGI (PC-3 prostate) was > 100 µM. It also gave a TGI (NCI-H522 lung) of 42.6 µM, a TGI (U251 CNS) of 63.7 µM and a TGI (RXF 393 renal) of 50.8 µM. It also gave a TGI (MDA-MB-231 breast) of 70 µM, a TGI (MALME-3M melanoma) of 49.8 µM and a TGI (SK-MEL-28 melanoma) of 34.9 µM. The TGI (LOX IMVI melanoma) was 50.4 µM, the TGI (SF-539 CNS) was > 100 µM and the TGI (NCI-H226 lung) was 63.9 µM. For the same molecule, the TGI (M14 melanoma) was > 100 µM, the TGI (HOP-92 NSCLC) was 69.1 µM and the TGI (BT-549 breast) was 41.1 µM. The TGI (UACC-257 melanoma) was 37.8 µM, the TGI (HCT-15 colon) was 40.2 µM and the TGI (COLO 205 colon) was 41.2 µM. The TGI (OVCAR-8 ovarian) was 92.1 µM, the TGI (SF-268 CNS) was 44.2 µM and the TGI (A549 NSCLC) was > 100 µM. For the same molecule, the TGI (SNB-75 CNS) was 52.6 µM, the TGI (RPMI-8226 leukemia) was > 100 µM and the TGI (MOLT-4 leukemia) was > 100 µM. For the same molecule, the TGI (KM12 colon) was 85.9 µM, the TGI (IGROV1 ovarian) was 49.5 µM and the TGI (NCI-H23 lung) was > 100 µM. The TGI (OVCAR-3 ovarian) was > 100 µM, the TGI (TK-10 renal) was 78.2 µM and the TGI (ACHN renal) was 38.9 µM. The TGI (K-562 leukemia) was > 100 µM, the TGI (HL-60(TB) leukemia) was 75.9 µM and the TGI (HOP-62 NSCLC) was > 100 µM. The TGI (DU-145 prostate) was > 100 µM, the TGI (SK-MEL-5 melanoma) was 35.9 µM and the TGI (UACC-62 melanoma) was 58.7 µM. The TGI (MDA-MB-435) was 65.7 µM, the TGI (HS 578T breast) was > 100 µM and the TGI (UO-31 renal) was 82 µM. For the same molecule, the TGI (OVCAR-4 ovarian) was 50.3 µM, the TGI (CCRF-CEM leukemia) was > 100 µM and the TGI (HCT-116 colon) was > 100 µM. It also gave a TGI (A498 renal) of 48.4 µM, a TGI (CAKI-1 renal) of 77.4 µM and a TGI (SK-MEL-2 melanoma) of 58.2 µM. For the same molecule, the TGI (786-0 renal) was 62 µM, the TGI (SN12C renal) was > 100 µM and the TGI (MCF7 breast) was 48.6 µM. The TGI (OVCAR-5 ovarian) was > 100 µM, the TGI (SNB-19 CNS) was 57.6 µM and the TGI (HT29 colon) was 33.8 µM. For the same molecule, the TGI (SW-620 colon) was 91.6 µM, the TGI (T-47D breast) was 39.5 µM and the TGI (NCI-H460 lung) was 62.5 µM. For the same molecule, the TGI (SF-295 CNS) was 73.1 µM, the TGI (NCI/ADR-RES ovarian) was > 100 µM and the TGI (EKVX NSCLC) was > 100 µM.
